In data set [1] the test system is patients. The settings on record: cited from earlier work.
The test system of data set [2] is patients with advanced solid malignancies. Description: Phase I dose escalation study: safety, dose-limiting toxicity and MTD. It counts as in vivo, human. The procedure:
This was an open-label nonrandomised dose escalation study, conducted in sequential cohorts of patients from two institutions, Aberdeen Royal Infirmary, Aberdeen, and the Beatson Oncology Centre, Glasgow. It was performed under the auspices of the Cancer Research Campaign, London, with sponsorship by Pharmacia and Upjohn, Milan.
All patients had histologically or cytologically proven advanced solid malignancy that was refractory to conventional therapy. […] All patients gave written informed consent according to local Ethics Committee guidelines.
All doses of the investigational agent are expressed as mg of CPT equivalent. The drug was stored at room temperature. The vials were reconstituted with 10 ml normal saline and the dose to be administered was made up in 100 ml saline in a PVC infusion bag.
Thereafter, dose escalation was to continue according to a modified Fibonacci series. The dose escalation scheme could, however, be modified if considered appropriate based on acquired clinical and pharmacokinetic data. The MTD was defined as the highest dose at which at least three of six patients had dose-limiting toxicity (DLT).
Patients were to be retreated at 28-day intervals for up to six cycles. […] Treatment could be delayed for up to 2 weeks to allow resolution of toxicity.
(§1) During the course of the study patients were reviewed in the clinic every week with toxicity assessment, physical examination, FBC, and serum chemistry. Tumour assessment by imaging was repeated every three cycles. Chest X-ray and ECG were repeated at the end of study.

Data set [3] deals with advanced solid malignancy.
Source text: as §1

For data set [4], the system named is colon, stomach, pancreas, ovary, breast, lung, and melanoma xenograft models. The settings on record: preclinical studies; cited from earlier work.
Data set [5] concerns patients. The settings on record: first 3 days of a 28-day cycle; ref Schoemaker et al, 2002; cited from earlier work.

We go through two compounds from publication PMC2364737, “Phase I and pharmacokinetic (PK) study of MAG-CPT (PNU 166148): a polymeric derivative of camptothecin (CPT)” (British Journal of Cancer, 2004).

In the case of `CC[C@@]1(O)C(=O)OCc2c1cc1n(c2=O)Cc2cc3ccccc3nc2-1` [Camptothecin], the “responses in early clinical trials” value in the data set with patients [1] (colorectal cancer, small bowel carcinoma, and melanoma) is on record as “responses to CPT were observed”. The “unpredictable and severe toxicity in early clinical trials” value with patients [1] (ref Gottlieb et al, 1970, Muggia et al, 1972) was “myelosuppression, gastrointestinal toxicity, and haemorrhagic cystitis”.

“copolymer of N-(hydroxypropyl) methacrylamide, (20-O-(N-methacryloyl-glycyl-aminohexanoyl-glycyl)) camptothecin and N-(2-hydroxypropyl) methacryloyl glycinamide [MAG-CPT]”: in data set [2] (200 mg m^−2), the “patients with grade 2 dysuria and haematuria during cycle 2” value was “one of the eight patients”. The “dose recommended for phase II / further clinical study” value in data set [2] (30-min infusion once every 4 weeks, dose as mg equivalent camptothecin) is 200 mg m^−2. The “nausea and vomiting grade 1” value in data set [2] (dose levels 30–120 mg m^−2) is on record as “observed sporadically”. The “antitumour effect in a patient with renal carcinoma” value in data set [3] (60 mg m^−2, patient had progressive disease with brain metastases) is on record as “regression of cutaneous metastases was observed”. Moreover, the objective antitumour responses entry in data set [3] (all dose levels, 23 patients) is “No objective antitumour responses were seen”. The “activity in xenograft models” value in data set [4] was “active”. For the same compound, the antitumour activity result in the data set on patients [5] is on record as “no evidence of antitumour activity”.
